In US20230002359A1, “PESTICIDALLY ACTIVE FUSED BICYCLIC HETEROAROMATIC COMPOUNDS” (priority 2019, published 2023):

Legend:
Type in all cases: in vivo
[1] = test system: Chilo suppressalis (Striped Rice Stemborer); assay: Example B3: Chilo suppressalis (striped rice stemborer), artificial diet, L2 larvae; conditions: 144 h, application rate of 200 ppm, 6 days after infestation, L2 larvae, read-out: control in at least one of the three categories (mortality, anti-feedant effect, or growth inhibition)
Summary of the method: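 Diet-incorporation surface assay: aqueous dilutions of 10'000 ppm DMSO stock applied to artificial diet, dried; 6-8 L2 larvae/well; read day 6 post-infestation for mortality, antifeedant effect, growth inhibition vs untreated. Active if any category above untreated.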

[2] = test system: Euschistus heros (Neotropical Brown Stink Bug); assay: Example B2: Euschistus heros (neotropical brown stink bug), soybean leaves sprayed, N2 nymphs; conditions: 120 h, application rate of 200 ppm, 5 days after infestation, N2 nymphs, read-out: control in at least one of the two categories (mortality or growth inhibition)
Procedure: Soybean leaves on agar in 24-well microtiter plates were sprayed with aqueous test solutions prepared from 10′000 ppm DMSO stock solutions. After drying the leaves were infested with N2 nymphs. The samples were assessed for mortality and growth inhibition in comparison to untreated samples 5 days after infestation.

[3] = test system: Diabrotica Balteata (Corn Root Worm); assay: Example B1: Diabrotica balteata (corn root worm), maize sprouts sprayed, L2 larvae; conditions: 96 h, application rate of 200 ppm, 4 days after infestation, L2 larvae, read-out: control in at least one of the two categories (mortality or growth inhibition)
Summary of the method: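 Larvae at L2 stage, 6 to 10 per well, feed on dried, spray-treated maize sprouts set on agar. Evaluation after 4 days compares mortality and growth inhibition with untreated samples.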

[4] = test system: Myzus persicae (Green Peach Aphid); assay: Example B6: Myzus persicae (green peach aphid) intrinsic activity, sucrose solution; conditions: 120 h, test rate of 12 ppm, 5 days after infestation, intrinsic activity, read-out: mortality
Summary of the method: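 Mortality was read 5 days after infestation. Aphids on pea seedlings fed through a stretched Parafilm membrane on inverted 24-well plates containing sucrose solution mixed with test compound, which was diluted from 10′000 ppm DMSO stock.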

[5] = test system: Myzus persicae (Green Peach Aphid); assay: Example B5: Myzus persicae (green peach aphid) feeding/contact activity, sunflower leaf discs; conditions: foliar, 144 h, application rate of 200 ppm, 6 days after infestation
Procedure: Sunflower leaf discs were placed onto agar in a 24-well microtiter plate and sprayed with aqueous test solutions prepared from 10′000 ppm DMSO stock solutions. After drying, the leaf discs were infested with an aphid population of mixed ages. The samples were assessed for mortality 6 days after infestation.

[6] = test system: Spodoptera littoralis (Egyptian Cotton Leaf Worm); assay: Example B7: Spodoptera littoralis (Egyptian cotton leaf worm), cotton leaf discs sprayed, L1 larvae; conditions: foliar, 72 h, application rate of 200 ppm, 3 days after infestation, L1 larvae, read-out: control in at least one of the three categories (mortality, anti-feedant effect, or growth inhibition)
Summary of the method: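 Spray application onto agar-supported cotton leaf discs used aqueous solutions derived from 10′000 ppm DMSO stocks. Once dry, discs were infested with five L1 larvae and evaluated after 3 days for mortality, anti-feeding and growth inhibition relative to untreated controls.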

[7] = test system: Plutella xylostella (Diamond Back Moth); assay: Example B4: Plutella xylostella (diamond back moth), artificial diet, eggs, 24-well; conditions: 192 h, application rate of 200 ppm, 8 days after infestation, eggs, read-out: control in at least one of the two categories (mortality or growth inhibition)
Procedure: 24-well microtiter plates with artificial diet were treated with aqueous test solutions prepared from 10′000 ppm DMSO stock solutions by pipetting. After drying, Plutella eggs were pipetted through a plastic stencil onto a gel blotting paper and the plate was closed with it. The samples were assessed for mortality and growth inhibition in comparison to untreated samples 8 days after infestation.

CC(c1ncnn1-c1ccc(C#N)cn1)N(C)c1ncnc2c(C(F)(F)F)cc(OC(F)(F)F)cc12 (stereo not drawn) [P.221, 6-[5-[1-[methyl-[6-(trifluoromethoxy)-8-(trifluoromethyl)quinazolin-4-yl]amino]ethyl]-1,2,4-triazol-1-yl]pyridine-3-carbonitrile]
≥ 80%: percent control (mortality, anti-feedant effect or growth inhibition) at 200 ppm [1] | percent control (mortality or growth inhibition) at 200 ppm [2] | percent control (mortality or growth inhibition) at 200 ppm [3] | mortality at 12 ppm [4] | mortality at 200 ppm [5] | percent control (mortality, anti-feedant effect or growth inhibition) at 200 ppm [6] | percent control (mortality or growth inhibition) at 200 ppm [7]

C[C@@H](c1ncnn1-c1ncccn1)N(C)c1ncnc2c(C(F)(F)F)cc(C(F)(F)F)cc12 [P.26, N-methyl-N-[(1S)-1-(2-pyrimidin-2-yl-1,2,4-triazol-3-yl)ethyl]-6,8-bis(trifluoromethyl)quina-zolin-4-amine]
≥ 80%: percent control (mortality, anti-feedant effect or growth inhibition) at 200 ppm [1] | percent control (mortality or growth inhibition) at 200 ppm [2] | percent control (mortality or growth inhibition) at 200 ppm [3] | mortality at 12 ppm [4] | mortality at 200 ppm [5] | percent control (mortality, anti-feedant effect or growth inhibition) at 200 ppm [6] | percent control (mortality or growth inhibition) at 200 ppm [7]

CCN(c1ncnc2c(C(F)(F)F)cc(C(F)(F)F)cc12)C(C)c1ncnn1-c1ccc(C#N)cn1 (stereo not drawn) [P.6, 6-[5-[1-[[6,8-bis(trifluoromethyl)quina-zolin-4-yl]-ethyl-amino]ethyl]-1,2,4-triazol-1-yl]pyridine-3-carbonitrile]
≥ 80%: percent control (mortality, anti-feedant effect or growth inhibition) at 200 ppm [1] | percent control (mortality or growth inhibition) at 200 ppm [2] | percent control (mortality or growth inhibition) at 200 ppm [3] | mortality at 12 ppm [4] | mortality at 200 ppm [5] | percent control (mortality, anti-feedant effect or growth inhibition) at 200 ppm [6] | percent control (mortality or growth inhibition) at 200 ppm [7]

C[C@@H](c1ncnn1-c1ccc(C(N)=S)cn1)N(C)c1ncnc2c(C(F)(F)F)cc(Cl)cc12 [P.191, 6-[5-[(1S)-1-[[6-chloro-8-(trifluoromethyl)quinazolin-4-yl]-methyl-amino]ethyl]-1,2,4-triazol-1-yl]pyridine-3-carbothioamide]
≥ 80%: percent control (mortality, anti-feedant effect or growth inhibition) at 200 ppm [1] | percent control (mortality or growth inhibition) at 200 ppm [2] | percent control (mortality or growth inhibition) at 200 ppm [3] | mortality at 12 ppm [4] | mortality at 200 ppm [5] | percent control (mortality or growth inhibition) at 200 ppm [7]

CC(c1ncnn1-c1ncccn1)N(C)c1ncnc2c(C(F)(F)F)cc(Br)cc12 (stereo not drawn) [P.127, 6-bromo-N-methyl-N-[1-(2-pyrimidin-2-yl-1,2,4-triazol-3-yl)ethyl]-8-(trifluoromethyl)quinazolin-4-amine]
≥ 80%: percent control (mortality, anti-feedant effect or growth inhibition) at 200 ppm [1] | percent control (mortality or growth inhibition) at 200 ppm [3] | mortality at 12 ppm [4] | mortality at 200 ppm [5] | percent control (mortality, anti-feedant effect or growth inhibition) at 200 ppm [6] | percent control (mortality or growth inhibition) at 200 ppm [7]

C[C@H](Nc1ncnc2c(C(F)(F)F)cc(Cl)cc12)c1ncnn1-c1ncccn1 [P.24, 6-chloro-N-[(1S)-1-(2-pyrimidin-2-yl-1,2,4-triazol-3-yl)ethyl]-8-(trifluoromethyl)quinazolin-4-amine]
≥ 80%: percent control (mortality, anti-feedant effect or growth inhibition) at 200 ppm [1] | percent control (mortality or growth inhibition) at 200 ppm [3] | mortality at 12 ppm [4] | mortality at 200 ppm [5] | percent control (mortality, anti-feedant effect or growth inhibition) at 200 ppm [6] | percent control (mortality or growth inhibition) at 200 ppm [7]

CC(c1ncnn1-c1ccc(OC(F)F)cn1)N(C)c1ncnc2c(C(F)(F)F)cc(Cl)cc12 (stereo not drawn) [P.236, 6-chloro-N-[1-[2-[5-(difluoromethoxy)-2-pyridyl]-1,2,4-triazol-3-yl]ethyl]-N-methyl-8-(trifluoromethyl)quinazolin-4-amine]
≥ 80%: percent control (mortality, anti-feedant effect or growth inhibition) at 200 ppm [1] | percent control (mortality or growth inhibition) at 200 ppm [3] | mortality at 12 ppm [4] | mortality at 200 ppm [5] | percent control (mortality, anti-feedant effect or growth inhibition) at 200 ppm [6] | percent control (mortality or growth inhibition) at 200 ppm [7]

CC(c1ncnn1-c1ncccn1)N(C)c1ncnc2c(Br)cc(Br)cc12 (stereo not drawn) [P.258, 6,8-dibromo-N-methyl-N-[1-(2-pyrimidin-2-yl-1,2,4-triazol-3-yl)ethyl]quinazolin-4-amine]
≥ 80%: percent control (mortality, anti-feedant effect or growth inhibition) at 200 ppm [1] | percent control (mortality or growth inhibition) at 200 ppm [3] | mortality at 12 ppm [4] | mortality at 200 ppm [5] | percent control (mortality, anti-feedant effect or growth inhibition) at 200 ppm [6] | percent control (mortality or growth inhibition) at 200 ppm [7]

CC(c1ncnn1-c1ccc(F)cn1)N(C)c1ncnc2c(C(F)(F)F)cc(Cl)cc12 (stereo not drawn) [P.187, 6-chloro-N-[1-[2-(5-fluoro-2-pyridyl)-1,2,4-triazol-3-yl]ethyl]-N-methyl-8-(trifluoromethyl)quinazolin-4-amine]
≥ 80%: percent control (mortality, anti-feedant effect or growth inhibition) at 200 ppm [1] | percent control (mortality or growth inhibition) at 200 ppm [2] | percent control (mortality or growth inhibition) at 200 ppm [3] | mortality at 12 ppm [4] | mortality at 200 ppm [5] | percent control (mortality or growth inhibition) at 200 ppm [7]

CC(c1ncnn1-c1ccc(F)cn1)N(C)c1ncnc2c(C(F)(F)F)cc(Br)cc12 (stereo not drawn) [P.188, 6-bromo-N-[1-[2-(5-fluoro-2-pyridyl)-1,2,4-triazol-3-yl]ethyl]-N-methyl-8-(trifluoromethyl)quinazolin-4-amine]
≥ 80%: percent control (mortality, anti-feedant effect or growth inhibition) at 200 ppm [1] | percent control (mortality or growth inhibition) at 200 ppm [2] | percent control (mortality or growth inhibition) at 200 ppm [3] | mortality at 12 ppm [4] | mortality at 200 ppm [5] | percent control (mortality or growth inhibition) at 200 ppm [7]

CC(c1ncnn1-c1ccc(C#N)cn1)N(C)c1ncnc2c(Br)cc(OC(F)(F)F)cc12 (stereo not drawn) [P.217, 6-[5-[1-[[8-bromo-6-(trifluoromethoxy)quinazo-lin-4-yl]-methyl-amino]ethyl]-1,2,4-triazol-1-yl]pyridine-3-carbonitrile]
≥ 80%: percent control (mortality, anti-feedant effect or growth inhibition) at 200 ppm [1] | percent control (mortality or growth inhibition) at 200 ppm [3] | mortality at 12 ppm [4] | mortality at 200 ppm [5] | percent control (mortality, anti-feedant effect or growth inhibition) at 200 ppm [6] | percent control (mortality or growth inhibition) at 200 ppm [7]

C[C@@H](c1ncnn1-c1ncccn1)N(C)c1ncnc2c(OC(F)F)cc(Cl)cc12 [P.90, 6-chloro-8-(difluoromethoxy)-N-methyl-N-[(1S)-1-(2-pyrimidin-2-yl-1,2,4-triazol-3-yl)ethyl]quinazolin-4-amine]
≥ 80%: percent control (mortality, anti-feedant effect or growth inhibition) at 200 ppm [1] | percent control (mortality or growth inhibition) at 200 ppm [2] | percent control (mortality or growth inhibition) at 200 ppm [3] | mortality at 12 ppm [4] | mortality at 200 ppm [5] | percent control (mortality or growth inhibition) at 200 ppm [7]

C[C@@H](c1ncnn1-c1ccc(C(N)=S)cn1)N(C)c1ncnc2c(C(F)(F)F)cc(C(F)(F)F)cc12 [P.190, 6-[5-[(1S)-1-[[6,8-bis(trifluoromethyl)quinazolin-4-yl]-methyl-amino]ethyl]-1,2,4-triazol-1-yl]pyridine-3-carbothioamide]
≥ 80%: percent control (mortality, anti-feedant effect or growth inhibition) at 200 ppm [1] | percent control (mortality or growth inhibition) at 200 ppm [2] | percent control (mortality or growth inhibition) at 200 ppm [3] | mortality at 12 ppm [4] | mortality at 200 ppm [5] | percent control (mortality or growth inhibition) at 200 ppm [7]
